Tested on: genes predictive for the anti-inflammatory macrolide effect
Assay: Genes statistically predictive of Clari response: differentially expressed with Clari but not the inactive macrolides MAA or Josa (Appendix E)
Assay type: cell-based
Excerpt: In the case of the above-mentioned (i) related to arachidonic acid biosynthesis, specifically, methods of the embodiment involve assaying whether a test macrolide alters biosynthesis of arachidonic acid, alters the expression or activities of enzymes involved in the biosynthesis or activation of arachidonic acid (e.g., arachidonic acid CoA synthetase, delta-6 desaturase, fatty acid elongase, and delta-5 desaturase, AA-related genes in Tables 2 and 3), or alters the expression of genes identified as predictive for the anti-inflammatory macrolide effect (Appendix E). Assays in which arachidonic acid or gene expression or enzymatic activity is detected can be carried out after contacting a cell with a test macrolide. Any cell line that secretes prostaglandin or produces arachidonic acid can be used. Epithelial and macrophages lines (e.g., A549 or THP-1) are suitable for this purpose; other cell lines can be identified by carrying out assays such as those described in the specific Examples, below. Alternatively, screening assays can be carried out after adding a test macrolide to an in vitro cell system (e.g., a cellular extract or liver microsome preparation) or an in vitro enzyme assay system.

CO[C@@H]1[C@@H](O[C@@H]2O[C@H](C)[C@@H](O[C@H]3C[C@@](C)(O)[C@@H](OC(=O)CC(C)C)[C@H](C)O3)[C@H](N(C)C)[C@H]2O)[C@@H](CC=O)C[C@@H](C)[C@@H](O)/C=C/C=C/C[C@@H](C)OC(=O)C[C@H]1OC(C)=O [josamycin]
group mean, gene DDOST (SpotID 49757, MAA and Josa vs. Clari): 0.96 | group mean, gene BCL2L2 (SpotID 49761, MAA and Josa vs. Clari): 0.85 | group mean, gene AD022 (SpotID 49767, MAA and Josa vs. Clari): 0.96 | mean group, AD022 (SpotID 49767, pooled group mean): 0.96 | group mean, gene P4HB (SpotID 49781, MAA and Josa vs. Clari): 0.98 | group mean, gene CYC1 (SpotID 49787, MAA and Josa vs. Clari): 1.09 | mean group, CYC1 (SpotID 49787, pooled group mean): 1.09 | group mean, gene BCL2L2 (SpotID 49794, MAA and Josa vs. Clari): 0.86 | mean group, AD022 (SpotID 49800, pooled group mean): 0.97 | group mean, gene CDKN2C (SpotID 49815, MAA and Josa vs. Clari): 1.06 | group mean, gene CYC1 (SpotID 49820, MAA and Josa vs. Clari): 1.05 | group mean, gene LAMP2 (SpotID 49882, MAA and Josa vs. Clari): 0.99 | group mean, gene ATP2B4 (SpotID 49915, MAA and Josa vs. Clari): 1.23 | mean group, ATP2B4 (SpotID 49915, pooled group mean): 1.23 | group mean, gene DHCR24 (SpotID 49922, MAA and Josa vs. Clari): 1.00 | group mean, gene KIAA0169 (SpotID 49930, MAA and Josa vs. Clari): 1.03 | mean group, RFC1 (SpotID 49947, pooled group mean): 1.05 | group mean, gene CCNE2 (SpotID 49967, MAA and Josa vs. Clari): 1.02 | group mean, gene BMP6 (SpotID 49981, MAA and Josa vs. Clari): 0.94 | group mean, gene VTN (SpotID 49989, MAA and Josa vs. Clari): 1.19 | group mean, gene SRC (SpotID 49990, MAA and Josa vs. Clari): 0.99 | group mean, gene NFYC (SpotID 50011, MAA and Josa vs. Clari): 1.10 | mean group, HIF1A (SpotID 50022, pooled group mean): 1.07 | group mean, gene GNB2L1 (SpotID 50049, MAA and Josa vs. Clari): 1.32 | mean group, NDUFA2 (SpotID 50050, pooled group mean): 0.90 | group mean, gene MBTPS1 (SpotID 50067, MAA and Josa vs. Clari): 0.95 | group mean, gene SCOP (SpotID 50079, MAA and Josa vs. Clari): 0.97 | mean group, SCOP (SpotID 50079, pooled group mean): 0.97 | group mean, gene IDI1 (SpotID 50084, MAA and Josa vs. Clari): 0.90 | group mean, SpotID 50085 (gene symbol not given) (SpotID 50085, MAA and Josa vs. Clari): 1.18 | group mean, gene CNOT3 (SpotID 50099, MAA and Josa vs. Clari): 0.95 | mean group, CNOT3 (SpotID 50099, pooled group mean): 0.95 | group mean, gene IRF5 (SpotID 50103, MAA and Josa vs. Clari): 0.87 | group mean, gene RRBP1 (SpotID 50135, MAA and Josa vs. Clari): 0.95 | group mean, SpotID 50216 (gene symbol not given) (SpotID 50216, MAA and Josa vs. Clari): 0.95 | group mean, gene FLJ13868 (SpotID 50222, MAA and Josa vs. Clari): 0.93 | group mean, gene HK2 (SpotID 50224, MAA and Josa vs. Clari): 0.95 | mean group, IL10RB (SpotID 50267, pooled group mean): 0.98 | group mean, gene UQCR (SpotID 50284, MAA and Josa vs. Clari): 0.83 | group mean, gene TM7SF2 (SpotID 50294, MAA and Josa vs. Clari): 1.01 | group mean, gene CDR2 (SpotID 50302, MAA and Josa vs. Clari): 0.89 | group mean, gene MAX (SpotID 50307, MAA and Josa vs. Clari): 0.96 | group mean, gene BMP6 (SpotID 50319, MAA and Josa vs. Clari): 0.98 | group mean, gene DAD1 (SpotID 50332, MAA and Josa vs. Clari): 1.02 | group mean, gene FGFR2 (SpotID 50337, MAA and Josa vs. Clari): 0.93 | group mean, gene IKKE (SpotID 50342, MAA and Josa vs. Clari): 0.94 | mean group, IKKE (SpotID 50342, pooled group mean): 0.94 | group mean, gene LOC51295 (SpotID 50349, MAA and Josa vs. Clari): 1.01 | mean group, LOC51295 (SpotID 50349, pooled group mean): 1.01 | mean group, CFL1 (SpotID 50351, pooled group mean): 1.16 | group mean, gene TFAM (SpotID 50386, MAA and Josa vs. Clari): 1.05 | group mean, gene DGCR6L (SpotID 50399, MAA and Josa vs. Clari): 1.02 | group mean, gene CHERP (SpotID 50405, MAA and Josa vs. Clari): 1.00 | group mean, gene AGPAT1 (SpotID 50412, MAA and Josa vs. Clari): 0.99 | mean group, GOCAP1 (SpotID 50421, pooled group mean): 1.01 | group mean, gene SIGIRR (SpotID 50452, MAA and Josa vs. Clari): 0.96 | group mean, gene MMP15 (SpotID 50464, MAA and Josa vs. Clari): 0.87 | group mean, gene CEBPA (SpotID 50474, MAA and Josa vs. Clari): 0.97 | mean group, MGP (SpotID 50511, pooled group mean): 0.83 | group mean, gene ARHC (SpotID 50513, MAA and Josa vs. Clari): 0.91 | mean group, ARHC (SpotID 50513, pooled group mean): 0.91 | group mean, gene PRKCBP1 (SpotID 50532, MAA and Josa vs. Clari): 1.07 | group mean, gene PTPRT (SpotID 50550, MAA and Josa vs. Clari): 0.92 | mean group, BN51T (SpotID 50584, pooled group mean): 0.97 | mean group, CKS2 (SpotID 50590, pooled group mean): 0.74 | mean group, SpotID 50591 (SpotID 50591 (gene symbol not given), pooled group mean): 1.01 | group mean, SpotID 50591 (gene symbol not given) (SpotID 50591, MAA and Josa vs. Clari): 1.01 | mean group, SRP19 (SpotID 50601, pooled group mean): 0.95 | group mean, gene PDIR (SpotID 50639, MAA and Josa vs. Clari): 0.91 | group mean, gene PROS1 (SpotID 50643, MAA and Josa vs. Clari): 0.93 | mean group, BET1 (SpotID 50645, pooled group mean): 0.84 | group mean, gene COPB2 (SpotID 50654, MAA and Josa vs. Clari): 0.99 | group mean, gene MAX (SpotID 50659, MAA and Josa vs. Clari): 0.95 | group mean, gene GNB5 (SpotID 50689, MAA and Josa vs. Clari): 1.00 | group mean, gene PRKDC (SpotID 50736, MAA and Josa vs. Clari): 1.07 | mean group, PRKDC (SpotID 50736, pooled group mean): 1.07 | group mean, gene AD022 (SpotID 50738, MAA and Josa vs. Clari): 0.94 | mean group, AD022 (SpotID 50738, pooled group mean): 0.94
